The values below come from patent US20080214558A1, “PYRIMIDINE-2,4-DIAMINE DERIVATIVES AND THEIR USE AS JAK2 KINASE INHIBITORS” (SUPERGEN, INC., priority 2007, published 2008).

Broadly, the IC50 is the concentration at which inhibition is half-maximal. Broadly, the EC50 is the concentration at which the effect is half-maximal.

For experiment [1], the system named is STAT3-phospho-Y705 in AGS gastric cancer cell line. Kind of experiment: Western blot of STAT3 phosphorylation in AGS cells. The experiment is classed as cell-based. The following applies: 24 hours, 5-10 uM, Western blot densitometry. On the procedure:
(§1) In order to detect specific inhibition of JAK2 enzyme in cell culture, Western blot assays may also be performed. For this, cells which have been treated with a potential JAK2 inhibitor are lysed with a buffer specific for the isolation and preservation of proteins (1% Nonidet P-40, 120 mM NaCl, 30 mM Tris pH 7.4, 1:100 Protease Inhibitor Cocktail III [Calbiochem/EMD Biosciences], 1:100 Phosphatase Inhibitor Cocktail 1 [Sigma-Aldrich, Saint Louis, Mo.], 1:100 Phosphatase Inhibitor Cocktail 2 [Sigma-Aldrich, Saint Louis, Mo.]). The protein concentration in these lysates is then quantified using the BCA Protein Assay Kit (Pierce). Known amounts of protein, e.g. 50 ug, are loaded onto 10% SDS-polyacrylamide gels and are subjected to reducing, denaturing SDS-PAGE. […]
(§2) In this example, Compound 1-4 is shown to reduce the JAK2-dependent phosphorylation of STAT3 and STAT5 in the AGS gastric cancer cell line. […] Following incubation, cells were lysed and total protein isolated and quantified. […] Densitometry analysis was performed in order to quantify the amount of STAT3 and STAT5 phosphorylation in these treated cells. Phospho-STAT3 and phospho-STAT5 were compared to total STAT3 and STAT5 and the proportion of STAT phosphorylation relative to untreated controls was determined.
(Immunoblotting shows a protein as a band on a membrane.)

The target of experiment [2] is T1, JAK2 kinase (Homo sapiens, UniProt O60674). Kind of experiment: Radiometric IC50Profiler assay (Millipore-Upstate). The experiment is classed as biochemical. Set-up: purchased Millipore-Upstate (KinaseProfiler / IC50Profiler assay service, Dundee, UK). The settings on record: read-out: IC50 (IC50 Profiler data). The protocol:
Compounds may also be tested using a radiometric assay; namely, the KinaseProfiler™ and IC50Profiler™ assay services (Millipore-Upstate, Dundee, UK). Briefly, compounds are tested at a single concentration (for single-point screening) or at a number of concentrations (for IC50 determinations) against recombinant JAK2 enzyme in the presence of radiolabeled ATP.

The next experiment deals with T2, JAK2 WT (Homo sapiens, UniProt O60674).
T2 construct: These enzymes include both the JH1 and JH2 homology regions of the protein; purchased Invitrogen Corporation (SelectScreen assay service, Carlsbad, Calif.)
Kind of experiment: Invitrogen SelectScreen profiling, wild-type JAK2. The experiment is classed as biochemical. The following applies: read-out: IC50 against wild-type JAK2 (SelectScreen). An excerpt:
(§3) The JAK2 V617F mutant isoform has recently come into focus for its role in neoplastic transformation. Thus, compounds may also be testing using the SelectScreen™ assay service (Invitrogen Corporation, Carlsbad, Calif.), which includes both wild-type and V617F mutant isoforms of JAK2. These enzymes include both the JH1 and JH2 homology regions of the protein, and differ only at amino acid 617.

A further experiment has as its target T3, JAK2 V617F (Homo sapiens, UniProt O60674, V617F).
T3 construct: These enzymes include both the JH1 and JH2 homology regions of the protein; purchased Invitrogen Corporation (SelectScreen assay service, Carlsbad, Calif.)
Kind of experiment: Invitrogen SelectScreen profiling, mutant JAK2. Type of experiment: biochemical. The following applies: read-out: IC50 against mutant JAK2 V617F (SelectScreen).
Description: as §3

Experiment [3] relates to nuclear STAT3 in AGS gastric cancer cells. Kind of experiment: STAT3 nuclear translocation high-content assay (STAT3 HitKit, ArrayScan VTi). The experiment is classed as cell-based. The protocol: When STAT3 is phosphorylated by JAK2, it forms a homodimer and is translocated to the nucleus to effect transcription of a number of target genes involved in cell proliferation. AGS gastric cancer cells were inoculated onto 96 well plates, and incubated in the presence of 5 μM Compound 1-4 for 1, 5 or 24 hours. Following incubation, cells were stained using the STAT3 HitKit (Thermo-Fisher) and detected using the Molecular Translocation BioApplication on a ArrayScan VTi high-content screening instrument (Thermo-Fisher). Nuclei were pseudostained blue (Hoechst) and STAT3 was pseudostained green (FITC).
Nuclear STAT3 was reduced by greater than 50% 24 h after treatment with Compound 1-4 when compared with nuclear STAT3 levels in untreated samples.

For experiment [4], the target named is T1, JAK2 kinase. Briefly: JAK2 kinase inhibition assay (Promega Kinase-Glo). Type of experiment: biochemical. The following applies: read-out: IC50 against JAK2 kinase (Promega Kinase-Glo assay). The source says: One illustrative manner in which JAK2 kinase activity can be determined is by quantifying the amount of ATP remaining in solution after an in vitro JAK2 kinase reaction, such as the Kinase-Glo Assay Kit (Promega, Inc., Madison, Wis.). The amount of ATP remaining in the solution after the kinase reaction serves as a substrate for the luciferase to catalyze luciferin to oxyluciferin plus one photon of light. Thus, the luminescent signal read by the Luminoskan Ascent Instrument (Thermo Electron Corp., Milford, Mass.) correlates with the amount of ATP present after the kinase reaction and inversely correlates with the amount of kinase activity. This assay is efficient at determining the IC50 values of kinase inhibitors against the JAK2 kinase. These assays are set up in duplicate 50 ul volumes in white, flat bottom 96 well plates. Inhibitors are added to the solution of 1× kinase buffer, 6 uM ATP, 62.5 uM JAK2-specific substrate, 30 ng of active JAK2 enzyme, and water in serial dilutions ranging from micromolar to nanomolar concentrations. This solution is incubated at 30 degrees Celsius at 360 rpm for two hours. Following the incubation, 50 ul of Kinase-Glo reagent is added to each well, including all positive and negative control wells, and incubated at room temperature for 15 minutes. […] The IC50 values can then be calculated for each inhibitor tested.
IC50 values against JAK2 kinase (using the Promega Kinase-Glo assay) were measured for Compound Nos. 1-4, 1-7, 1-11 and 1-17.
A general note: Kinase-Glo measures the ATP left after a reaction by luminescence.

Experiment [5] relates to STAT5-phospho-Y694 in HEL cells expressing the V617F mutant of JAK2. Briefly: Western blot of STAT5 phosphorylation in HEL cells expressing JAK2 V617F. Type of experiment: cell-based. The following applies: Homo sapiens, 24 hours, Western blot densitometry, read-out: EC50 for reduction of STAT5 phosphorylation. On the procedure:
In order to detect specific inhibition of JAK2 enzyme in cell culture, Western blot assays may also be performed. For this, cells which have been treated with a potential JAK2 inhibitor are lysed with a buffer specific for the isolation and preservation of proteins (1% Nonidet P-40, 120 mM NaCl, 30 mM Tris pH 7.4, 1:100 Protease Inhibitor Cocktail III [Calbiochem/EMD Biosciences], 1:100 Phosphatase Inhibitor Cocktail 1 [Sigma-Aldrich, Saint Louis, Mo.], 1:100 Phosphatase Inhibitor Cocktail 2 [Sigma-Aldrich, Saint Louis, Mo.]). The protein concentration in these lysates is then quantified using the BCA Protein Assay Kit (Pierce). Known amounts of protein, e.g. 50 ug, are loaded onto 10% SDS-polyacrylamide gels and are subjected to reducing, denaturing SDS-PAGE. Electrophoresed proteins are transferred to a nitrocellulose membrane, which is then probed with antibodies to STAT5, pSTAT5 (Tyr 694), STAT3, and pSTAT3 (Tyr 705). As STAT5 and STAT3, at Tyrosine 694 and Tyrosine 705 respectively, are substrates for JAK2, measuring the amount of phosphorylation at these sites in treated cells provides a means by which to evaluate the efficacy of JAK2 inhibitors.
Briefly, HEL cells were plated in 25 cm^2 tissue culture flasks and incubated in the presence of varying concentrations of Compound Nos. 1 or 2 for 24 hours. Following incubation, cells were lysed and total protein isolated and quantified. 50 μg of total protein was electrophoresed and transferred to nitrocellulose membrane, at which point Western Blot analysis was performed using an antibody to STAT5-phospho-Y694. Comparisons to total STAT5 were made. Densitometry analysis was performed in order to quantify the amount of STAT5 phosphorylation in these treated cells.

The subject of experiment [6] is STAT5-phospho-Y694 in AGS gastric cancer cell line. Kind of experiment: Western blot of STAT5 phosphorylation in AGS cells. The experiment is classed as cell-based. The following applies: 24 hours, 5-10 uM, Western blot densitometry. The protocol:
as §1, §2

Experiment [7] deals with various cancer cell lines. Briefly: Cell-Titer-Glo cell survival/proliferation assay. The experiment is classed as cell-based. The settings on record: screened between 300 nM and 10 nM, read-out: IC50 from % survival (Cell-Titer-Glo). The protocol:
Cell culture-based assays can be used to evaluate the ability of compounds of the invention to inhibit one or more cellular activities, such as cancer cell growth and/or survival. Numerous cancer cell lines can be obtained from the American Type Culture Collection (ATCC) and other sources. Briefly, cells are seeded into 96-well, tissue-culture treated, opaque white plates (Thermo Electron, Vantaa, Finland), at between 600 and 14000 cells per well, depending on the speed of cell proliferation, in 100 ul of appropriate growth medium (determined by the ATCC). Cells are then exposed to the appropriate concentration of drug and allowed to grow in its presence for 96 hours. Following this, 100 ul of Cell-Titer-Glo reagent (Promega, Inc., Madison, Wis.) is added to each well. Plates are then shaken for 2 minutes at room temperature to allow for cell lysis and incubated for 10 minutes at room temperature to stabilize the luminescent signal. Similar to the Kinase-Glo assay reagent from Promega, this reagent contains both luciferase enzyme and its substrate luciferin. Luciferase, activated by ATP in the cell lysate, catalyzes the conversion of luciferin to oxyluciferin, a reaction which produces light. The amount of light produced is proportionate to the amount of ATP in the cell lysate, which is itself proportional to cell number and gives an index of cellular proliferation.
Compound Nos. 1-4, 1-7, 1-11 and 1-17 were screened at a dilution range between 300 nM and 10 nM as JAK2 inhibitors, with percent survival being determined using the Cell-Titer-Glo Assay.

T2 sequence (O60674 532-1132 limits assumed): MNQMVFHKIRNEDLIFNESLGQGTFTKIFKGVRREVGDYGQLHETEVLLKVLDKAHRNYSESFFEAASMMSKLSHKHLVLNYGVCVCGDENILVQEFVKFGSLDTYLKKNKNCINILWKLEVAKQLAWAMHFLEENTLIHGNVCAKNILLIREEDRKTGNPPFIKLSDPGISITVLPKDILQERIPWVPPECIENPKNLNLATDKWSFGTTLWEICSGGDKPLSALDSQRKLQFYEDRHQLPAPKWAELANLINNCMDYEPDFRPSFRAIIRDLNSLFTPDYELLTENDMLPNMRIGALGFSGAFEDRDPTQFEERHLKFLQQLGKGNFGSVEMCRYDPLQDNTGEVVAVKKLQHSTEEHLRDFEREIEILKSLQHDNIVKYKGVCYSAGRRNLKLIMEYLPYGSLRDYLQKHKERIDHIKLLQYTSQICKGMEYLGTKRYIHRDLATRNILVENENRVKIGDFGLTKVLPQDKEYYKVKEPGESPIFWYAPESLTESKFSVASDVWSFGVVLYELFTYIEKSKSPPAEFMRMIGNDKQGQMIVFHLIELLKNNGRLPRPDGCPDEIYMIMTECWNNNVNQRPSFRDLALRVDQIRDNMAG
T1 sequence (O60674 whole entry): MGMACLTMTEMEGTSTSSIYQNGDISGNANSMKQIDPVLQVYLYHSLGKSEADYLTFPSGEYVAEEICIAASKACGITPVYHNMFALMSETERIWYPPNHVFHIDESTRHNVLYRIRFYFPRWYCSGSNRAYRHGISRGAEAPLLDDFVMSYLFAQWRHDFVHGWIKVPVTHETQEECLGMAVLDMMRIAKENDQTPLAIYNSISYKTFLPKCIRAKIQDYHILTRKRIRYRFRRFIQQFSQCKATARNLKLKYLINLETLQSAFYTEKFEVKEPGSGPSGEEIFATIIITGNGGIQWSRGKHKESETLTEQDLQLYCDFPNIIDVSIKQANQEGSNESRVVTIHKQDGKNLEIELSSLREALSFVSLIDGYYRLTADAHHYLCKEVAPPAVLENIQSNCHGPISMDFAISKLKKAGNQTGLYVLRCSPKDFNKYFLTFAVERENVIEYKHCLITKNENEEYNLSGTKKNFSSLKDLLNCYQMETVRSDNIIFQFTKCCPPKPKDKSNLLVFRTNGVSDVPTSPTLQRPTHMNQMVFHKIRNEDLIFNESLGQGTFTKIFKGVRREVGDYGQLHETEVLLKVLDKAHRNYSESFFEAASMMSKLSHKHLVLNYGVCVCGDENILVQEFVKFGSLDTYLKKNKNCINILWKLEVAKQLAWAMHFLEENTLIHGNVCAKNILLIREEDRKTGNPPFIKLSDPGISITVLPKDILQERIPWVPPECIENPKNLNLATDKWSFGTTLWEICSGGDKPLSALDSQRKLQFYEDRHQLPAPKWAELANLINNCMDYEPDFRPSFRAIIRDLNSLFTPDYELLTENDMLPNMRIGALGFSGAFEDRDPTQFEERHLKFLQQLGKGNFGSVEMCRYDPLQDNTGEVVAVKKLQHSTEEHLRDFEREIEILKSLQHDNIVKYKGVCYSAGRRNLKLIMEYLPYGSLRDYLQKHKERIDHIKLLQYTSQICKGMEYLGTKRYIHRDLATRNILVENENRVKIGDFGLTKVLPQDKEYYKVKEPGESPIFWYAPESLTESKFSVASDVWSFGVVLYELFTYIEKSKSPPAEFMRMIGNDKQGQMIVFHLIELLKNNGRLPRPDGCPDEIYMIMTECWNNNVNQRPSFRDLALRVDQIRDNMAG
T3 sequence (O60674 532-1132 V617F limits assumed): as the sequence (O60674 532-1132 limits assumed) above, with V86F counted along it

In the case of `CN1CCN(c2ccc(Nc3nccc(Nc4ccc(F)c(Cl)c4)n3)cc2)CC1` [Compound 1-4, N4-(3-chloro-4-fluorophenyl)-N2-(4-(4-methylpiperazin-1-yl)phenyl)pyrimidine-2,4-diamine], the “STAT3 phosphorylation relative to untreated controls” value in experiment [1] is “reduced levels”. For the same compound, the IC50 at JAK2 kinase [2] is under 1000 nM; at JAK2 WT, under 1000 nM; at JAK2 V617F, under 1000 nM; at JAK2 kinase [4] it was under 1000 nM; in [7], under 10 nM. The STAT3 staining localisation entry in [3] (5 μM, 1, 5 or 24 hours) is “confined outside the nucleus”. Also, the “Reduction of nuclear STAT3 compared with untreated samples” value in experiment [3] (5 μM, 24 h after treatment) was “greater than 50%”. The EC50 in experiment [5] was 299 nM. Also, the “STAT5 phosphorylation relative to untreated controls” value in [6] is “reduced levels”.
On to `CN1CCN(c2ccc(Nc3nccc(Nc4cccc(CC#N)c4)n3)cc2)CC1` [Compound 1-7, 2-(3-(2-(4-(4-Methylpiperazin-1-yl)phenylamino)pyrimidin-4-ylamino)phenyl)acetonitrile], for which the IC50 is under 1000 nM on JAK2 kinase [2]; under 1000 nM on JAK2 WT; under 1000 nM on JAK2 V617F; under 1000 nM at JAK2 kinase [4]; under 10 nM in experiment [7]. For the same compound, the EC50 in experiment [5] turned out to be 4 nM.
Turning to `CN1CCN(C(=O)c2ccc(Nc3nccc(Nc4cccc(CC#N)c4)n3)cc2)CC1` [Compound 1-17, 2-(3-(2-(4-(4-methylpiperazine-1-carbonyl)phenylamino)pyrimidin-4-ylamino)phenyl)acetonitrile], the IC50 was under 1000 nM at JAK2 kinase [2]; under 1000 nM on JAK2 WT; under 1000 nM at JAK2 V617F; under 1000 nM on JAK2 kinase [4]; under 10 nM in experiment [7]. In addition, in experiment [5], the concentration for a half-maximal effect (EC50) was determined as 266 nM.
As for `CN1CCN(c2ccc(Nc3nccc(Nc4cccc(CC#N)c4)n3)cc2F)CC1` [Compound 1-11, 2-(3-(2-(3-Fluoro-4-(4-methylpiperazin-1-yl)phenylamino)pyrimidin-4-ylamino)phenyl)acetonitrile], the 50% inhibitory concentration (IC50) is under 1000 nM on JAK2 kinase [2]; under 1000 nM on JAK2 WT; under 1000 nM on JAK2 V617F; under 1000 nM at JAK2 kinase [4]; under 10 nM in experiment [7]. Also, the EC50 in experiment [5] came to 65.8 nM.
